# According to ChEMBL document CHEMBL5346968, “Exploring Structural Determinants of Bias among D4 Subtype-Selective Dopamine Receptor Agonists” (J Med Chem, 2023):
# Experiments:
# [1] = Permeability of the compound across basal to apical membrane in human Caco-2 cells at 5 uM incubated for 4 hrs in the presence of valspodar by HPLC(UV) analysis; format: ADME, cell-based; details: caco-2, 4 h
# [2] = Permeability of the compound across basal to apical membrane in human Caco-2 cells at 5 uM incubated for 4 hrs by HPLC(UV) analysis; format: ADME, cell-based; details: caco-2, 4 h
# [3] = target: T1, D(2) dopamine receptor (Homo sapiens, UniProt P14416); assay: Displacement of [3H]-N-methylspiperone from human dopmaine D2S receptor expressed in CHO cell membrane assessed as inhibition constant by competition binding assay; format: cell membranes
# [4] = Drug metabolism in pooled rat liver microsomes assessed as hydroxylation mediated metabolite formation at 40 uM measured upto 60 mins in the presence of NADPH by HPLC(UV) analysis; format: ADME, Microsome; details: 1 h
# [5] = target: D(1A) dopamine receptor (Homo sapiens, UniProt P21728); assay: Displacement of [3H]SCH23390 from human dopamine D1 receptor expressed in HEK293T cells assessed as inhibition constant by competition binding assay; format: cell-based
# [6] = Retention time of the compound by HPLC(UV) method; format: physicochemical
# [7] = Apparent permeability of the compound across basal to apical membrane in human Caco-2 cells at 50 uM incubated for 4 hrs by HPLC(UV) analysis; format: ADME, cell-based
# [8] = target: T2, Alpha-2A adrenergic receptor (Homo sapiens, UniProt P08913); assay: Displacement of [3H]RX821002 from adrenergic alpha 2A receptor (unknown origin) expressed in HEK293T cells assessed as inhibition constant by competition binding assay; format: cell-based
# T2 sequence (P08913 whole entry): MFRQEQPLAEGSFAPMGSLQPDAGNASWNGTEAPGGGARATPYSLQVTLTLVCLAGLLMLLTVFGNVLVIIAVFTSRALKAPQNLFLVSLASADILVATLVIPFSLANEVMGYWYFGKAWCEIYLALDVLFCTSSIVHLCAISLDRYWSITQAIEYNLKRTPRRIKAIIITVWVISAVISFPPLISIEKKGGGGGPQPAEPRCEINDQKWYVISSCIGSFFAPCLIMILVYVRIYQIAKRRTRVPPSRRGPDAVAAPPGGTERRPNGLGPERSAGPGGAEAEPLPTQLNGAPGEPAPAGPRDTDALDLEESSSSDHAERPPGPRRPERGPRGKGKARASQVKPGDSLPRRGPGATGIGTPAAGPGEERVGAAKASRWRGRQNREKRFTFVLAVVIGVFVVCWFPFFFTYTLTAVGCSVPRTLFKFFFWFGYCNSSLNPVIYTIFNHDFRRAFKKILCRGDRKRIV
# [9] = target: D(3) dopamine receptor (Homo sapiens, UniProt P35462); assay: Displacement of [3H]-N-methylspiperone from human dopmaine D3 receptor expressed in HEK293T cells assessed as inhibition constant by competition binding assay; format: cell-based
# [10] = target: T1, D(2) dopamine receptor; assay: Displacement of [3H]-N-methylspiperone from human dopmaine D2L receptor expressed in CHO cell membrane assessed as inhibition constant by competition binding assay; format: cell membranes
# [11] = Drug metabolism in pooled rat liver microsomes assessed as O-demethylation mediated metabolite formation at 40 uM measured upto 60 mins in the presence of NADPH by HPLC(UV) analysis; format: ADME, Microsome; details: 1 h
# [12] = target: T3, Alpha-1A adrenergic receptor (Homo sapiens, UniProt P35348); assay: Displacement of [3H]prazosin from adrenergic alpha 1A receptor (unknown origin) expressed in HEK293T cells assessed as inhibition constant by competition binding assay; format: cell-based
# T3 sequence (P35348 whole entry): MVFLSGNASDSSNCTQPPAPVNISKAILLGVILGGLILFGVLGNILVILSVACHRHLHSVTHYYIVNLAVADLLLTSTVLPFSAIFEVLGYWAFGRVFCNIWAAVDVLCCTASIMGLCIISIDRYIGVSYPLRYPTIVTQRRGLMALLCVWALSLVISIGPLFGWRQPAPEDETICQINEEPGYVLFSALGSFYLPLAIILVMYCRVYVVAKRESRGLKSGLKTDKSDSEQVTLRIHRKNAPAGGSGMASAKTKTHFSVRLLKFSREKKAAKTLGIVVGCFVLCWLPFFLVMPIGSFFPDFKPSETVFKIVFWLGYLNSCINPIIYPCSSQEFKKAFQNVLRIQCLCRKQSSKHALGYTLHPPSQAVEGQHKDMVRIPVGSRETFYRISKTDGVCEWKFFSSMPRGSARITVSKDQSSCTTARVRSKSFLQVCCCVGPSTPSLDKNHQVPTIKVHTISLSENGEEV
# [13] = target: T4, 5-hydroxytryptamine receptor 1A (Homo sapiens, UniProt P08908); assay: Displacement of [3H][…] from 5-HT1A receptor (unknown origin) expressed in HEK293T cells assessed as inhibition constant by competition binding assay; format: cell-based
# T4 sequence (P08908 whole entry): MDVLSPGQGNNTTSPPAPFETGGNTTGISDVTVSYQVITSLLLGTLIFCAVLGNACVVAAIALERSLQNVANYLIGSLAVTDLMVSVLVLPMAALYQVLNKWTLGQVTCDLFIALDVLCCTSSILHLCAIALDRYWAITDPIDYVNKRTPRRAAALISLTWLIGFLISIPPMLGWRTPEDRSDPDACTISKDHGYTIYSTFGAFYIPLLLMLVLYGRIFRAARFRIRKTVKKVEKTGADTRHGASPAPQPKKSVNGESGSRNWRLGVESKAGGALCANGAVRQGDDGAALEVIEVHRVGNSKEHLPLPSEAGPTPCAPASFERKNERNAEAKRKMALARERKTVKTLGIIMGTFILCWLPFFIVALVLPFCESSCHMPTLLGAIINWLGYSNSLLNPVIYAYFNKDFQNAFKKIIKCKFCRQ
# [14] = target: D(1B) dopamine receptor (Homo sapiens, UniProt P21918); assay: Displacement of [3H]SCH23390 from human dopamine D5 receptor expressed in HEK293T cells assessed as inhibition constant by competition binding assay; format: cell-based
# [15] = Permeability of the compound across basal to apical membrane in human Caco-2 cells at 50 uM incubated for 4 hrs by HPLC(UV) analysis; format: ADME, cell-based; details: caco-2, 4 h
# [16] = target: 5-hydroxytryptamine receptor 2A (Homo sapiens, UniProt P28223); assay: Displacement of [3H]ketanserin from 5-HT2A receptor (unknown origin) expressed in HEK293T cells assessed as inhibition constant by competition binding assay; format: cell-based
# 5-hydroxytryptamine receptor 2A, sequence (P28223 whole entry): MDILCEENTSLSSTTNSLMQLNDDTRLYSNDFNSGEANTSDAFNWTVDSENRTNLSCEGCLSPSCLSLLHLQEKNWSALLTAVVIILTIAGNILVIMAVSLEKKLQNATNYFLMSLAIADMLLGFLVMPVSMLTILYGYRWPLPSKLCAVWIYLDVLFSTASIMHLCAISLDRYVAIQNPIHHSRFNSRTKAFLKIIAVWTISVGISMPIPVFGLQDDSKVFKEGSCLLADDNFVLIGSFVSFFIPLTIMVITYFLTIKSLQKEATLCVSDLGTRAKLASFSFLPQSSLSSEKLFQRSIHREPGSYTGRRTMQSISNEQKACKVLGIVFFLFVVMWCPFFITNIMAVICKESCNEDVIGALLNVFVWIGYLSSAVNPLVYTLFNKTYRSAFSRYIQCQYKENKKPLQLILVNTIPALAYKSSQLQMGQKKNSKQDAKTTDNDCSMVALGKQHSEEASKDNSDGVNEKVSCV
# T1 sequence (P14416 whole entry): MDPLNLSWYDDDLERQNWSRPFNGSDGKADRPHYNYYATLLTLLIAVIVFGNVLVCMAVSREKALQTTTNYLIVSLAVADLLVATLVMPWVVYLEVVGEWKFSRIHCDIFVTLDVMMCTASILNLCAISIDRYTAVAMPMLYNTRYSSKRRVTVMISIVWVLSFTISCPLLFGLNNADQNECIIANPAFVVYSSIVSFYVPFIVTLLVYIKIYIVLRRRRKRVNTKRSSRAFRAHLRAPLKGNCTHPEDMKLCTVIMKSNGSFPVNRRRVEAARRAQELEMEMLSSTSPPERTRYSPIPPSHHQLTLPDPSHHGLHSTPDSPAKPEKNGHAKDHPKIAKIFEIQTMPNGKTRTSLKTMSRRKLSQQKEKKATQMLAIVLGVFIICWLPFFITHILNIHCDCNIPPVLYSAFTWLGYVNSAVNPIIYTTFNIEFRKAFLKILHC
# D(1B) dopamine receptor, sequence (P21918 whole entry): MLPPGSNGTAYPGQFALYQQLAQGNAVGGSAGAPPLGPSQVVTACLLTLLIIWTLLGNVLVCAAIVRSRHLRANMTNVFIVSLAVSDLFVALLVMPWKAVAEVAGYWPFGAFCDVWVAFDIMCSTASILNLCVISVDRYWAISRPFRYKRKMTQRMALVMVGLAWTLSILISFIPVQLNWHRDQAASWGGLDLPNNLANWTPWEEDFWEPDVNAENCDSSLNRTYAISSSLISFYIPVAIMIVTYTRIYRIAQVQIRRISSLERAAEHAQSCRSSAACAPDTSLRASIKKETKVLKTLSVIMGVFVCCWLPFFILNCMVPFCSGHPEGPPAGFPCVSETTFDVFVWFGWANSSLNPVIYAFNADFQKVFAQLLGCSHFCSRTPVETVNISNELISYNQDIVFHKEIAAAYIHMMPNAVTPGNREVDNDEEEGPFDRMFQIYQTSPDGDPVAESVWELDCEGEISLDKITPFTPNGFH
# D(3) dopamine receptor, sequence (P35462 whole entry): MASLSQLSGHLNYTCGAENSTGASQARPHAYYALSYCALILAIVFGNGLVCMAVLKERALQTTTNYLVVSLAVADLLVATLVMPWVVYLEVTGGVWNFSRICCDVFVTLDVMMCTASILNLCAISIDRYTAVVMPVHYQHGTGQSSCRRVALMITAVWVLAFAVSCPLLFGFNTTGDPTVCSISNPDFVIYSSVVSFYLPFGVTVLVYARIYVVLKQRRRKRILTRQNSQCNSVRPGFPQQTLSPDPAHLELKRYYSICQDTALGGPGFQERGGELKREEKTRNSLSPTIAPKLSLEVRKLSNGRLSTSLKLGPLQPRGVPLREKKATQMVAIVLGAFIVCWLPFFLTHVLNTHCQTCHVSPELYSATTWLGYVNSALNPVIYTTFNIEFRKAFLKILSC
# D(1A) dopamine receptor, sequence (P21728 whole entry): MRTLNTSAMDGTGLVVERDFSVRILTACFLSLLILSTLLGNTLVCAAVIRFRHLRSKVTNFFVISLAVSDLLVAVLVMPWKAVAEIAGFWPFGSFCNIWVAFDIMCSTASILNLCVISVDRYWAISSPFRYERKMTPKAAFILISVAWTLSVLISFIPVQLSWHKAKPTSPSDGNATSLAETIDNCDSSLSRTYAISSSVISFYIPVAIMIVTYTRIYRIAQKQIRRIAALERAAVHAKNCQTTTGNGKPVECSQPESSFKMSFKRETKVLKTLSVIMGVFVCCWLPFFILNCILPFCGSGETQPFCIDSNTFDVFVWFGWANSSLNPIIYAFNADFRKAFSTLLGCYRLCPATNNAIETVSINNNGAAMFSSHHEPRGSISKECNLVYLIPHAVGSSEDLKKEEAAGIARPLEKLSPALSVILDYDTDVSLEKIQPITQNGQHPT
permeability [1] [%],permeability [2] [%],Ki [3] [nM],Drug metabolism [4],Ki [5] [nM],Retention_time [6] [min],"Papp B→A at 4 h, 50 µM [7] [×10⁻⁶ cm/s]",Ki [8] [nM],Ki [9] [nM],Ki [10] [nM],Drug metabolism [11],Ki [12] [nM],Ki [13] [nM],Ki [14] [nM],permeability [15],Ki [16] [nM],SMILES
12.1,22.9,–,–,–,–,–,–,–,–,–,–,–,–,–,–,C[C@H]1O[C@@H](O[C@H]2[C@@H](O)C[C@H](O[C@H]3[C@@H](O)C[C@H](O[C@H]4CC[C@@]5(C)[C@H](CC[C@@H]6[C@@H]5C[C@@H](O)[C@]5(C)[C@@H](C7=CC(=O)OC7)CC[C@]65O)C4)O[C@@H]3C)O[C@@H]2C)C[C@H](O)[C@@H]1O [DIGOXIN]
–,–,36,Metabolite_Detected,16,4.37,> 1,150,44,52,Metabolite_Detected,8.2,100,350,Impermeable,160,COc1ccccc1N1CCN(CCCNC(=O)Nc2ccccc2-c2ccc(-c3ccccc3)cc2)CC1
